The target of one experiment is Human mTOR (FLAG-TOR) (Homo sapiens, UniProt P42345). As to the kind of experiment: mTOR kinase assay (DELFIA format, purified enzyme). The format is biochemical. As to conditions: read-out: IC50 mTOR.
The test system of experiment [1] is human breast MDA-MB-361 tumor cell line. As to the kind of experiment: In vitro cell culture growth assay (MTS), MDA-MB-361. The following applies: read-out: IC50 MDA-MB-361. The format is cell-based.
The target in the next experiment is PI3K-α (Homo sapiens, UniProt P42336). In words: PI3K-alpha fluorescence polarization assay. The following applies: read-out: IC50 PI3Kα. (In general: Fluorescence polarisation rises when a labelled molecule tumbles more slowly, as on binding a larger partner.)
PI3K-α, sequence (P42336 whole entry, species assumed): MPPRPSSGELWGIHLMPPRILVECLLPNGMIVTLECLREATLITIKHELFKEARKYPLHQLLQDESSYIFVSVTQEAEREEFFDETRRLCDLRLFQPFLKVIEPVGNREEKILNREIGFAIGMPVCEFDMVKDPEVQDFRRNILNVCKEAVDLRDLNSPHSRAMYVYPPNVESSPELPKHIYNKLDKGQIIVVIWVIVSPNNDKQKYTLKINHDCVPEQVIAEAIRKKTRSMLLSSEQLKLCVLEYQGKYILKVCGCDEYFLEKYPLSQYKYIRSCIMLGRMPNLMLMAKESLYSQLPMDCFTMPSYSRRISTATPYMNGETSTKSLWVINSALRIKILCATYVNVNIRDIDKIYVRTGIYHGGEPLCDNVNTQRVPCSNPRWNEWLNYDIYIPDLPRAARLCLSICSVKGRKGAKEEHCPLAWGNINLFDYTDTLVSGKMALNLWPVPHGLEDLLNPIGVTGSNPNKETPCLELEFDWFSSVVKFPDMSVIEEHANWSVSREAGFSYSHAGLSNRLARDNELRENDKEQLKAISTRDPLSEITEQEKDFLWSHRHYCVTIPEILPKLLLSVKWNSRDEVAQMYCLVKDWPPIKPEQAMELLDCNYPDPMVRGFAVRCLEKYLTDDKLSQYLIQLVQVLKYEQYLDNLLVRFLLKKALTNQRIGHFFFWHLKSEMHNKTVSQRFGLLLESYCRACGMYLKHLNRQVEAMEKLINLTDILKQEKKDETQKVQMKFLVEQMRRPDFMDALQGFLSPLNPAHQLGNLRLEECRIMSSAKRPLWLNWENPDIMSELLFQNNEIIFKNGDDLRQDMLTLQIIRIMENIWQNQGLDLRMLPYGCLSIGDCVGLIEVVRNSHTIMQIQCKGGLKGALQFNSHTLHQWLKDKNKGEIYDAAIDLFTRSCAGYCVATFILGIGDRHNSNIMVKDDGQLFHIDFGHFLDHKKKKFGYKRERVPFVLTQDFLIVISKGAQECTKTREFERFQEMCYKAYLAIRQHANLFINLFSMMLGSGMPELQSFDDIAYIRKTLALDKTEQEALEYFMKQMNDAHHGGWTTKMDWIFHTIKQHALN
PI3K-α, sequence (P27986 whole entry partner, species assumed): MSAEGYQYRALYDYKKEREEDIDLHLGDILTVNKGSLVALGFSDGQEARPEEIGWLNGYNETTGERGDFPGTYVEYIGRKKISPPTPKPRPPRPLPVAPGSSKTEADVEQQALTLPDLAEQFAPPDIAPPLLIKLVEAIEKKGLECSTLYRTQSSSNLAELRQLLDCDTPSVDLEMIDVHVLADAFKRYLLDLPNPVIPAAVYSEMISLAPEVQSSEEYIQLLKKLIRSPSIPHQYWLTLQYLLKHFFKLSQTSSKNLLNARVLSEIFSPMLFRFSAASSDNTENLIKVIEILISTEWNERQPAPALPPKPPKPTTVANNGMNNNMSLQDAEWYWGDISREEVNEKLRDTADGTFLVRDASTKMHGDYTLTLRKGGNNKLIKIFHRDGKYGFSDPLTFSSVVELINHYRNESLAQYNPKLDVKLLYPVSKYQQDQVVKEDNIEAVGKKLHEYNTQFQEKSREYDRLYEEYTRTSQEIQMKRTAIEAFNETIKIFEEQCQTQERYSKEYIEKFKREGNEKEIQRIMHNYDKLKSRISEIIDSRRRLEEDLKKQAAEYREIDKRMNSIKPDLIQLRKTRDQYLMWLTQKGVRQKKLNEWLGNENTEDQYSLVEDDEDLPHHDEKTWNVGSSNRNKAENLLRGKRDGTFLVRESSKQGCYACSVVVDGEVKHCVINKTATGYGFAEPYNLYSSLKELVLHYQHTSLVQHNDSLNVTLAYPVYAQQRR
Another experiment concerns the target PI3K-γ (Homo sapiens, UniProt P48736). As to the kind of experiment: PI3K-gamma fluorescence polarization assay. The following applies: read-out: IC50 PI3Kγ.
The subject of experiment [2] is human prostate PC3-mm2 tumor cell line. As to the kind of experiment: In vitro cell culture growth assay (MTS), PC3-mm2. The experiment is classed as cell-based.
The mark [3] stands for this setting: MTS cell growth assay, three days after drug treatment, PC3-mm2 cells, read-out: IC50 PC3-mm2.
Setting [4] is: Homo sapiens, PC3MM2, 72 h, MTS cell growth assay, three days after drug treatment, read-out: IC50 PC3-mm2.
The mark [5] stands for this setting: Homo sapiens, PC3MM2, 72 h, MTS cell growth assay, three days after drug treatment, PC3-mm2 cells, read-out: IC50 PC3-mm2.

“And” between values parts separate entries of the source, which are not always exact repeats. Equal values may be shown once. Read-outs that look alike come from different tables or passages of the source.

PI3K-γ, sequence (P48736 whole entry, species assumed): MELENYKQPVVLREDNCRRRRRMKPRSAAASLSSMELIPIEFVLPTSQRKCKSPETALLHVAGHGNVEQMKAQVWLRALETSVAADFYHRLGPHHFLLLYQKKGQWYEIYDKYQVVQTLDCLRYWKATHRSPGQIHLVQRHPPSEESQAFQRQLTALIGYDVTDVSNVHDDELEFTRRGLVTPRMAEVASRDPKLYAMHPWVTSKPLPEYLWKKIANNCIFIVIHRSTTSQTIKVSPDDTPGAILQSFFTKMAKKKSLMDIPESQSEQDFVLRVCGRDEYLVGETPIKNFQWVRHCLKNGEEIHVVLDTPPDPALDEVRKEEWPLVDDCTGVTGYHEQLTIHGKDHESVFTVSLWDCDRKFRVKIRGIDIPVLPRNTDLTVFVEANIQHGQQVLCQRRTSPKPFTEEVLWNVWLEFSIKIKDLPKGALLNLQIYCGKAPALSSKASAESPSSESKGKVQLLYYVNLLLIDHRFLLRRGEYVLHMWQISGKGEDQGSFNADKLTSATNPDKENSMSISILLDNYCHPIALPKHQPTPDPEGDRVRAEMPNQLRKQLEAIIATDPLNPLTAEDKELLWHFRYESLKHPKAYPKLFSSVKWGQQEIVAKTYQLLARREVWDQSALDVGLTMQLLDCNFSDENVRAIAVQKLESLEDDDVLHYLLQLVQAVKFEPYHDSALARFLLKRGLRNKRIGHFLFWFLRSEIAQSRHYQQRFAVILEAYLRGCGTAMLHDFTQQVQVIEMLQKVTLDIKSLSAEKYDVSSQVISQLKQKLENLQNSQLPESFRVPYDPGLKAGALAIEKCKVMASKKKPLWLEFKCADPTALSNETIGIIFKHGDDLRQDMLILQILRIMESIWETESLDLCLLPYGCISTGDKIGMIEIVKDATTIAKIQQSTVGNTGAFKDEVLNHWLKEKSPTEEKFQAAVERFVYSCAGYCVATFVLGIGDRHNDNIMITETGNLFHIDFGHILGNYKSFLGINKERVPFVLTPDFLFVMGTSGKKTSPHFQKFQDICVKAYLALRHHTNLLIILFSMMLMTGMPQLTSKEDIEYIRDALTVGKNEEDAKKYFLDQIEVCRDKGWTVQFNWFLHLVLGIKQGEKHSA
Human mTOR (FLAG-TOR), sequence (P42345 1360-2549 limits assumed): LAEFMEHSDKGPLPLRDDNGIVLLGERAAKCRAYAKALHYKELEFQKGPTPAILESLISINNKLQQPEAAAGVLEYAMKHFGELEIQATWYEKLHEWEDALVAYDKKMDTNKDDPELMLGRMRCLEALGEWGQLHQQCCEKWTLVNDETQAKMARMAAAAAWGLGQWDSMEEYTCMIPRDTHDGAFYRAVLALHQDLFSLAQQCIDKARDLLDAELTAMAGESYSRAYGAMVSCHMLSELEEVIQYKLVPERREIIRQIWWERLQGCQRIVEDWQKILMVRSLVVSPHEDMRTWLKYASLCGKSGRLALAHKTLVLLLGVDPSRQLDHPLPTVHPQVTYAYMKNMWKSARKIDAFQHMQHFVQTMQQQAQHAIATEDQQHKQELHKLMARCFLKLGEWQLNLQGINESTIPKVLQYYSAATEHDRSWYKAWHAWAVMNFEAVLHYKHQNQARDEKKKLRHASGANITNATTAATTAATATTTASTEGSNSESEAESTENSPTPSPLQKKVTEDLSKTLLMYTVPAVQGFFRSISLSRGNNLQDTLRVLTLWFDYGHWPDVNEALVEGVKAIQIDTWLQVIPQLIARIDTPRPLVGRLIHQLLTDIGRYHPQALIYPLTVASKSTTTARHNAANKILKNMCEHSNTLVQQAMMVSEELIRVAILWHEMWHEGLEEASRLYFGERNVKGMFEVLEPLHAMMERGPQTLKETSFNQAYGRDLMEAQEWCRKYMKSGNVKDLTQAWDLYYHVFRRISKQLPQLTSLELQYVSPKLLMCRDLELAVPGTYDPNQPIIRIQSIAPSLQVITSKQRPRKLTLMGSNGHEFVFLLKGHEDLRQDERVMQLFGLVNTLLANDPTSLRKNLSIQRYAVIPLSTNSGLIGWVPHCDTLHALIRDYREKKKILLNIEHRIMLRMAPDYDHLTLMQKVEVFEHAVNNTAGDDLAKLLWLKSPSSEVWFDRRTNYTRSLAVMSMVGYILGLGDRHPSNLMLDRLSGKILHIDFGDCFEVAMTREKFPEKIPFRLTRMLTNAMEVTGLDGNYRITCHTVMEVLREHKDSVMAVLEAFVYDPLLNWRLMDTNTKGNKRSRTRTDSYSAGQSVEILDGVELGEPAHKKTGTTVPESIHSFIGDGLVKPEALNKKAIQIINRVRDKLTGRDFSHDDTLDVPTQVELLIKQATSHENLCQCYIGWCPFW

On to “1-(4-{[4-(dimethylamino)piperidin-1-yl]carbonyl}phenyl)-3-[4-(4-morpholin-4-yl-6-phenyl-1,3,5-triazin-2-yl)phenyl]urea [Example 544]”, for which the IC50 (commonly the concentration needed to halve the response being measured) on Human mTOR (FLAG-TOR) is 17 nM; in experiment [1] (MTS cell growth assay, three days after drug treatment, MDA-MB-361 cells), 58 nM; at PI3K-α, 3.5 nM; at PI3K-γ, 20.5 nM.
Consider “1-(4-{[(3S)-3-(dimethylamino)pyrrolidin-1-yl]carbonyl}phenyl)-3-{4-[4-morpholin- [Example 517]”, for which the IC50 on Human mTOR (FLAG-TOR) was 1.06 nM; in experiment [2] (setting [3]) it was 7 nM; on PI3K-α, 3.4 nM; at PI3K-γ it was 18.5 nM.
`CNC(=O)c1ccc(NC(=O)Nc2ccc(-c3nc(N4CCOCC4)nc(N4CCOCC4)n3)cc2)cc1` [Example 70, 4-(3-(4-(4,6-dimorpholino-1,3,5-triazin-2-yl)phenyl)ureido)-N-methylbenzamide]: the concentration for half-maximal inhibition (IC50) was found to be 0.7 nM on Human mTOR (FLAG-TOR) and 24 nM in experiment [2] (Homo sapiens, PC3MM2, 72 h, read-out: IC50 PC3-mm2, MTS cell growth assay, three days after drug treatment).
Take `O=C(Nc1ccncc1)Nc1ccc(-c2nc(N3CCCCC3)nc(N3CC4CCC(C3)O4)n2)cc1` [Example 79, 1-(4-(4-(8-oxa-3-azabicyclo[3.2.1]octan-3-yl)-6-(piperidin-1-yl)-1,3,5-triazin-2-yl)phenyl)-3-(pyridin-4-yl)urea]: the 50% inhibitory concentration (IC50) at Human mTOR (FLAG-TOR) worked out at 5.1 nM; in experiment [2] (setting [4]), 320 nM; on PI3K-α, 773 nM; on PI3K-γ, 193 nM.
In the case of `O=C(Nc1ccncc1)Nc1ccc(-c2nc(N3CCCC3)nc(N3CC4CCC(C3)O4)n2)cc1` [Example 80, 1-(4-(4-(8-oxa-3-azabicyclo[3.2.1]octan-3-yl)-6-(pyrrolidin-1-yl)-1,3,5-triazin-2-yl)phenyl)-3-(pyridin-4-yl)urea], the IC50 is 7.15 nM at Human mTOR (FLAG-TOR), 320 nM in experiment [2] (setting [4]), 851 nM at PI3K-α and 2120 nM at PI3K-γ.
Regarding `O=C(Nc1ccc(C(=O)NCCN2CCCCC2)cc1)Nc1ccc(-c2nc(N3CCOCC3)nc(N3CCOCC3)n2)cc1` [Example 151, 4-({[4-(4,6-dimorpholin-4-yl-1,3,5-triazin-2-yl)phenyl]carbamoyl}amino)-N-(2-piperidin-1-ylethyl)benzamide], the half-inhibitory concentration (IC50) worked out at 7 nM on Human mTOR (FLAG-TOR), 14 nM in experiment [2] (setting [4]), 0.6 nM at PI3K-α and 8120 nM on PI3K-γ.
Take `CN(C)C1CCN(C(=O)c2ccc(NC(=O)Nc3ccc(-c4nc(N5CCOCC5)nc(N5CCOCC5)n4)cc3)cc2)C1` (stereo not drawn) [Example 167, 1-(4-{[3-(dimethylamino)pyrrolidin-1-yl]carbonyl}phenyl)-3-[4-(4,6-dimorpholin-4-yl-1,3,5-triazin-2-yl)phenyl]urea]: the IC50 came to 0.68 nM on Human mTOR (FLAG-TOR), 10 nM in experiment [2] (setting [4]) and 0.8 nM on PI3K-α.
On to `CCCCc1nc(-c2ccc(NC(=O)Nc3ccc(C(=O)N(C)CCN(C)C)cc3)cc2)nc(N2CCOCC2)n1` [Example 198, 4-({[4-(4-butyl-6-morpholin-4-yl-1,3,5-triazin-2-yl)phenyl]carbamoyl}amino)-N-[2-(dimethylamino)ethyl]-N-methylbenzamide], for which the IC50 at Human mTOR (FLAG-TOR) came out at 2 nM; in experiment [2] (setting [4]), 43 nM; on PI3K-α it was 2 nM; on PI3K-γ, 33 nM.
With `COc1nc(-c2ccc(NC(=O)Nc3ccc(C(=O)N4CCN(C)CC4)cc3)cc2)nc(N2CCOCC2)n1` [Example 246, 1-[4-(4-methoxy-6-morpholin-4-yl-1,3,5-triazin-2-yl)phenyl]-3-{4-[(4-methylpiperazin-1-yl)carbonyl]phenyl}urea], the IC50 in experiment [1] (Homo sapiens, MDA-MB-361, 72 h) is 35 nM; in experiment [2] (Homo sapiens, PC3MM2, 72 h, read-out: IC50 PC3-mm2), 91 nM.
For `CCc1nc(-c2ccc(NC(=O)Nc3ccc(C(=O)Nc4ccc(N5CCN(C)CC5)cc4)cc3)cc2)nc(N2CCOCC2)n1` [Example 251, 4-({[4-(4-ethyl-6-morpholin-4-yl-1,3,5-triazin-2-yl)phenyl]carbamoyl}amino)-N-[4-(4-methylpiperazin-1-yl)phenyl]benzamide], the IC50 was 6 nM on Human mTOR (FLAG-TOR), 65 nM in experiment [2] (setting [4]), 2 nM on PI3K-α and 21 nM at PI3K-γ.
For `CCCCc1nc(-c2ccc(NC(=O)Nc3ccc(C(=O)Nc4ccc(OCCN(C)C)cc4)cc3)cc2)nc(N2CCOCC2)n1` [Example 269, 4-({[4-(4-butyl-6-morpholin-4-yl-1,3,5-triazin-2-yl)phenyl]carbamoyl}amino)-N-{4-[2-(dimethylamino)ethoxy]phenyl}benzamide] the same measures were 80 nM, 144 nM, 6 nM and 140 nM.
For the molecule `CC(C)c1nc(-c2ccc(NC(=O)Nc3ccc(C(=O)N4CCN(C)CC4)cc3)cc2)nc(N2CCOCC2)n1` [Example 304, 1-{4-[4-(1-methylethyl)-6-morpholin-4-yl-1,3,5-triazin-2-yl]phenyl}-3-{4-[(4-methylpiperazin-1-yl)carbonyl]phenyl}urea], the 50% inhibitory concentration (IC50) was 2.5 nM and 4.5 nM at Human mTOR (FLAG-TOR); 39.3 nM in experiment [2] (setting [5]); 39.3 nM in experiment [2] (setting [4]); 2 nM on PI3K-α; 1.1 nM at PI3K-α (listed as 486).
For the molecule `CC(C)c1nc(-c2ccc(NC(=O)Nc3ccc(C(=O)NC4CN(C)C4)cc3)cc2)nc(N2CCOCC2)n1` [Example 307, N-(1-methylazetidin-3-yl)-4-[({4-[4-(1-methylethyl)-6-morpholin-4-yl-1,3,5-triazin-2-yl]phenyl}carbamoyl)amino]benzamide], the IC50 on Human mTOR (FLAG-TOR) was 2.8 nM; in experiment [2] (setting [4]) it was 362 nM; at PI3K-α it was 3 nM; at PI3K-γ, 30 nM.
For `CC(C)Cc1nc(-c2ccc(NC(=O)Nc3ccc(C(=O)N4CCC(N(C)C)CC4)cc3)cc2)nc(N2CCOCC2)n1` [Example 323, 1-(4-{[4-(dimethylamino)piperidin-1-yl]carbonyl}phenyl)-3-{4-[4-(2-methylpropyl)-6-morpholin-4-yl-1,3,5-triazin-2-yl]phenyl}urea] the same measures were 7 nM, 77 nM, 2.9 nM and 32 nM.
`CN(C)CCN(C)C(=O)Nc1ccc(NC(=O)Nc2ccc(-c3nc(N4CCOCC4)nc(N4CCOCC4)n3)cc2)cc1` [Example 500, 1-[2-(dimethylamino)ethyl]-3-[4-({[4-(4,6-dimorpholin-4-yl-1,3,5-triazin-2-yl)phenyl]carbamoyl}amino)phenyl]-1-methylurea]: the IC50 at Human mTOR (FLAG-TOR) was 1.09 nM; in experiment [1] (Homo sapiens, 72 h, MTS cell growth assay, three days after drug treatment, MDA-MB-361 cells), 1 nM; at PI3K-α, 0.4 nM; at PI3K-γ, 10 nM.
On to `CN(C)C1CCN(C(=O)c2ccc(NC(=O)Nc3ccc(-c4nc(-c5cccs5)nc(N5CCOCC5)n4)cc3)cc2)CC1` [Example 568, 1-(4-{[4-(dimethylamino)piperidin-1-yl]carbonyl}phenyl)-3-{4-[4-morpholin-4-yl-6-(2-thienyl)-1,3,5-triazin-2-yl]phenyl}urea], for which the IC50 was 10 nM at Human mTOR (FLAG-TOR), 107 nM in experiment [2] (setting [5]) and 3.5 nM at PI3K-α.
On to `O=C(Nc1ccc(C(=O)N2CCC(N3CCCCC3)CC2)cc1)Nc1ccc(-c2nc(N3CCOCC3)nc(N3C4CCC3COC4)n2)cc1` [Example 760, 1-[4-(1,4′-bipiperidin-1′-ylcarbonyl)phenyl]-3-{4-[4-morpholin-4-yl-6-(3-oxa-8-azabicyclo[3.2.1]oct-8-yl)-1,3,5-triazin-2-yl]phenyl}urea], for which the IC50 came out at 0.21 nM at Human mTOR (FLAG-TOR), 4 nM in experiment [2] (setting [5]), 4.3 nM at PI3K-α and 28.3 nM on PI3K-γ.
For the molecule `O=C(Nc1ccncc1)Nc1ccc(-c2nc(N3CCOCC3)nc(N3CC4CCC3CO4)n2)cc1` (stereo not drawn) [Example 807, 1-{4-[4-morpholin-4-yl-6-(2-oxa-5-azabicyclo[2.2.2]oct-5-yl)-1,3,5-triazin-2-yl]phenyl}-3-pyridin-4-ylurea], the IC50 came to 35 nM in experiment [1] (Homo sapiens, 72 h, MDA-MB-361 cells, MTS, three days after drug treatment) and 37 nM in experiment [2] (Homo sapiens, PC3MM2, 72 h, PC3-mm2 cells, MTS, three days after drug treatment, read-out: IC50 PC3-mm2).
Regarding `CN1CCN(C(=O)c2ccc(NC(=O)Nc3ccc(-c4nc(N5CCOCC5)nc(N5C6CCC5COC6)n4)cc3)cc2)CC1(C)C` [Example 837, 1-{4-[4-(morpholin-4-yl)-6-(3-oxa-8-azabicyclo[3.2.1]oct-8-yl)-1,3,5-triazin-2-yl]phenyl}-3-{4-[(3,3,4-trimethylpiperazin-1-yl)carbonyl]phenyl}urea], the IC50 at Human mTOR (FLAG-TOR) amounted to 515 nM; at PI3K-α, 3.7 nM; at PI3K-γ, 19.5 nM.
On to “N-[2-(dimethylamino)ethyl]-4-({[4-(4-morpholin-4-yl-6-piperidin-1-yl-1,3,5-triazin-2-yl)phenyl]carbamoyl}amino)benzamide [Example 601]”, for which the half-maximal inhibitory concentration (IC50) on Human mTOR (FLAG-TOR) was 3 nM; in experiment [2] (setting [3]), 155 nM; on PI3K-α it was 3.5 nM; on PI3K-γ, 57.5 nM.
Turning to “N-[2-(dimethylamino)ethyl]-N-methyl-4-[({4-[4-morpholin-4-yl-6-(tetrahydro-2H-pyran-4-yl)-1,3,5-triazin-2-yl]phenyl}carbamoyl)amino]benzamide [Example 524]”, the IC50 at Human mTOR (FLAG-TOR) was 0.26 nM; on PI3K-α it was 0.8 nM; on PI3K-γ, 10 nM.

Values taken from patent US20090304692A1, “TRIAZINE COMPOUNDS AS PI3 KINASE AND MTOR INHIBITORS” (Wyeth, priority 2008, published 2009).
